Some test systems named below: 786-0 renal; CAKI-1 renal; CCRF-CEM leukemia; NCI-H460 lung; OVCAR-5 ovarian; RXF 393 renal; SF-539 CNS; SR leukemia; MDA-MB-231 breast; MDA-MB-435.
What all share (assay): NCI anticancer screen, dose series, 48 h

“And” between values parts separate entries of the source, which are not always exact repeats. Identical values can stand only once.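 Each compound was tested at five concentrations against cells in 96-well plates for 48 hours. GI50 marks 50% less growth. TGI marks complete inhibition of growth.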

As for `N.N.N.N.N.NC(=O)c1nn[n-]n1.[Cl-].[Co+3]`, the GI50 in the assay on 786-0 renal, in the assay with CAKI-1 renal, in the assay with CCRF-CEM leukemia, in the assay on NCI-H460 lung, in the assay with OVCAR-5 ovarian and in the assay on RXF 393 renal was above 100 µM throughout. Moreover, the GI50 in the assay with SF-539 CNS and in the assay on SR leukemia was above 100 µM in each case. Also, the TGI in the assay on 786-0 renal, in the assay with CAKI-1 renal, with CCRF-CEM leukemia, with NCI-H460 lung, in the assay with OVCAR-5 ovarian and with RXF 393 renal was above 100 µM in each case. For the same compound, the TGI in the assay with SF-539 CNS and with SR leukemia was above 100 µM in each case.
For `O=C1CC(O)CC(=O)C1=C(O)CCCCCCCCCCc1ccccc1` (stereo not drawn), the TGI with 786-0 renal, in the assay on CAKI-1 renal, in the assay with CCRF-CEM leukemia, with NCI-H460 lung, in the assay with OVCAR-5 ovarian and in the assay with RXF 393 renal was above 100 µM in each case. The TGI in the assay on SF-539 CNS and with SR leukemia was above 100 µM each time.
Turning to `Cc1cc(CC(=O)NCCO)n(CCO)c(=O)c1`, the TGI with 786-0 renal, in the assay with CAKI-1 renal, in the assay on CCRF-CEM leukemia, in the assay with NCI-H460 lung, in the assay on OVCAR-5 ovarian and in the assay on RXF 393 renal was above 100 µM in each case. The TGI in the assay on SF-539 CNS and in the assay with SR leukemia was above 100 µM throughout.
With `CC[C@@H]1c2c(C#N)ncn2-c2cnc(Nc3ccc(C(=O)NC4CCN(C5CCN(CC6CC6)CC5)CC4)cc3OC)nc2N1C1CCCC1`, the GI50 was 0.164 µM in the assay with 786-0 renal; 1.62 µM in the assay on CAKI-1 renal; 0.00738 µM with CCRF-CEM leukemia; 0.0631 µM and 0.0382 µM with MDA-MB-231 breast; 0.0354 µM in the assay with NCI-H460 lung; 0.0449 µM in the assay on OVCAR-5 ovarian. Further, the GI50 with RXF 393 renal is 0.0462 µM; in the assay with SF-539 CNS, 0.0493 µM; with SR leukemia, 0.0387 µM. For the same compound, the TGI in the assay on 786-0 renal is 1.2 µM; in the assay on CAKI-1 renal it was 3.88 µM; in the assay with CCRF-CEM leukemia it was 1.58 µM; in the assay on MDA-MB-231 breast it was 1.31 µM and 0.219 µM; with NCI-H460 lung, 1.28 µM; in the assay with OVCAR-5 ovarian, 1.39 µM. Moreover, the results for the TGI in the assay on RXF 393 renal, with SF-539 CNS and in the assay with SR leukemia were 1.8 µM, 0.888 µM and 1.02 µM, respectively.
As for `CCOC(=O)c1c(C)nc2c(c1N)CC(=O)N2Cc1ccc(OC)cc1`, the GI50 with 786-0 renal was 3.45 µM; in the assay on CAKI-1 renal, above 100 µM; in the assay on CCRF-CEM leukemia it was above 100 µM; in the assay on MDA-MB-231 breast, 3.77 µM; in the assay with MDA-MB-435, above 100 µM; in the assay with OVCAR-5 ovarian it was above 100 µM. Also, the results for the GI50 with SF-539 CNS and in the assay with SR leukemia were 7.03 µM and 63.1 µM, respectively. Besides, the TGI in the assay on 786-0 renal is 27.8 µM; in the assay on CAKI-1 renal it was above 100 µM; with CCRF-CEM leukemia it was above 100 µM; in the assay with MDA-MB-231 breast, above 100 µM; in the assay with MDA-MB-435, above 100 µM; in the assay with OVCAR-5 ovarian, above 100 µM. Besides, the TGI with SF-539 CNS and in the assay on SR leukemia was above 100 µM each time.
`NC(=O)C(=O)N/N=C1\C(=O)N(c2ccc(Cl)cc2Cl)C(=O)C1C(=O)Nc1ccc(Cl)cc1Cl` (stereo not drawn): the TGI with 786-0 renal, in the assay on CAKI-1 renal, in the assay on CCRF-CEM leukemia, with NCI-H460 lung, in the assay with OVCAR-5 ovarian and in the assay with RXF 393 renal was above 100 µM throughout. The TGI with SF-539 CNS and in the assay with SR leukemia was above 100 µM in each case.
Consider `CC1=C(c2ccccc2)C(c2ccccc2)=C(c2ccccc2)C2(c3ccccc3)C(=O)C(C)CN12` (stereo not drawn), for which the TGI in the assay with 786-0 renal was above 100 µM; with CAKI-1 renal, above 100 µM; in the assay on NCI-H460 lung, above 100 µM; in the assay on OVCAR-5 ovarian it was above 100 µM; with RXF 393 renal, 63.5 µM; with SF-539 CNS, above 100 µM. The compound further showed a TGI with SR leukemia above 100 µM.
`NS(=O)(=O)c1ccc(-n2nc(-c3ccc(Cl)cc3)cc2-c2cc(O)ccc2O)cc1`: the GI50 in the assay on 786-0 renal was 5.18 µM; with CAKI-1 renal, 7.9 µM; in the assay on CCRF-CEM leukemia, 3.14 µM; in the assay with MDA-MB-231 breast it was 3.32 µM; in the assay on MDA-MB-435, 11.7 µM; in the assay with NCI-H460 lung, 7.81 µM. Moreover, the GI50 is 15.7 µM with OVCAR-5 ovarian, 25.4 µM with SF-539 CNS and 3.85 µM in the assay with SR leukemia. For the same compound, the TGI is 16.7 µM in the assay on 786-0 renal; 22.8 µM with CAKI-1 renal; 66.6 µM in the assay on CCRF-CEM leukemia; 13.9 µM with MDA-MB-231 breast; 28 µM in the assay with MDA-MB-435; above 100 µM in the assay on NCI-H460 lung. Moreover, the figures for the TGI with OVCAR-5 ovarian, with SF-539 CNS and in the assay with SR leukemia were 31.1 µM, 46.7 µM and above 100 µM, respectively.
Take `CCN1C(=O)N(CC)C2C1NN=c1s/c(=C\c3cccc(F)c3)c(=O)n12` (stereo not drawn): the GI50 in the assay with 786-0 renal was 0.657 µM; in the assay with CAKI-1 renal, 0.0711 µM; with CCRF-CEM leukemia, 0.181 µM; with MDA-MB-231 breast, 0.405 µM; in the assay with MDA-MB-435, 0.0271 µM; in the assay with NCI-H460 lung it was 0.217 µM. Also, the GI50 in the assay with OVCAR-5 ovarian is 0.556 µM; in the assay with SF-539 CNS, 0.0804 µM; in the assay on SR leukemia, 0.044 µM. For the same compound, the TGI with 786-0 renal is above 100 µM; in the assay on CAKI-1 renal it was above 100 µM; in the assay on CCRF-CEM leukemia it was above 100 µM; with MDA-MB-231 breast, above 100 µM; in the assay with MDA-MB-435, 0.0833 µM; in the assay on NCI-H460 lung, 15.1 µM. Moreover, the TGI in the assay with OVCAR-5 ovarian was above 100 µM; in the assay with SF-539 CNS, 1.05 µM; in the assay with SR leukemia, above 100 µM.
Take `Cc1cccc(/C=C/c2c(C(=O)/C=C/c3ccccc3)c(C)nc3ccccc23)c1`: the GI50 with 786-0 renal is 1.62 µM; in the assay on CAKI-1 renal, 1.29 µM; in the assay on CCRF-CEM leukemia, 1.33 µM; with MDA-MB-435 it was 1.81 µM; with NCI-H460 lung, 1.3 µM; in the assay with OVCAR-5 ovarian it was 1.98 µM. Further, the GI50 in the assay on RXF 393 renal was 1.51 µM; in the assay on SF-539 CNS it was 1.71 µM; with SR leukemia, 0.982 µM. For the same compound, the TGI is 3.11 µM in the assay with 786-0 renal; 2.59 µM in the assay with CAKI-1 renal; above 100 µM with CCRF-CEM leukemia; 4.29 µM with MDA-MB-435; 2.94 µM with NCI-H460 lung; 3.56 µM in the assay on OVCAR-5 ovarian. For the same compound, the TGI worked out at 2.86 µM with RXF 393 renal, 3.12 µM in the assay on SF-539 CNS and 4.94 µM in the assay with SR leukemia.
`COc1cc(Br)c(C=Nc2cccc3cc(OC)c(OC)cc23)cc1OC`: the TGI was above 100 µM with 786-0 renal; above 100 µM with CAKI-1 renal; above 100 µM in the assay on CCRF-CEM leukemia; above 100 µM with NCI-H460 lung; above 100 µM in the assay on OVCAR-5 ovarian; 50.3 µM in the assay with RXF 393 renal. In addition, the TGI was 66.9 µM in the assay on SF-539 CNS and above 100 µM in the assay with SR leukemia.
As for `COC1=C(N)C(=O)c2nc(C)ccc2C1=O`, the TGI in the assay with 786-0 renal was 3.94 µM; in the assay with CAKI-1 renal it was 22.4 µM; in the assay on CCRF-CEM leukemia, above 87.7 µM; with NCI-H460 lung, 4.11 µM; in the assay with OVCAR-5 ovarian it was 3.43 µM; with RXF 393 renal, 3.08 µM. Further, the TGI in the assay on SF-539 CNS was 3.35 µM; with SR leukemia, above 24 µM.
In the case of `Cc1nnn[n-]1.N.N.N.N.N.[Cl-].[Co+3]`, the GI50 in the assay on 786-0 renal, with CCRF-CEM leukemia, in the assay on NCI-H460 lung, in the assay on OVCAR-5 ovarian, with RXF 393 renal and in the assay with SF-539 CNS was above 100 µM in each case. Further, the GI50 with SR leukemia is above 100 µM. In addition, the TGI in the assay with 786-0 renal, in the assay with CCRF-CEM leukemia, with NCI-H460 lung, with OVCAR-5 ovarian, in the assay on RXF 393 renal and in the assay with SF-539 CNS was above 100 µM throughout. Also, in the assay on SR leukemia, the TGI was above 100 µM.
For the compound `CC1(C)O[C@H]2[C@H](O)C[C@](O)(CO)C[C@H]2O1`, the TGI in the assay on 786-0 renal, with CAKI-1 renal, in the assay with NCI-H460 lung, in the assay on OVCAR-5 ovarian, with RXF 393 renal and in the assay with SF-539 CNS was above 100 µM throughout. For the same compound, the TGI with SR leukemia was above 100 µM.
Consider `CCOC(=O)c1nn2c(nc1=O)sc1ccc3ccccc3c12`, for which the TGI in the assay with 786-0 renal, in the assay on CAKI-1 renal, in the assay with CCRF-CEM leukemia, in the assay with NCI-H460 lung, with OVCAR-5 ovarian and in the assay with RXF 393 renal was above 100 µM each time. The TGI with SF-539 CNS and in the assay on SR leukemia was above 100 µM in each case.
With `O=[N+]([O-])c1ccc(C[P+](c2ccccc2)(c2ccccc2)c2ccccc2)cc1`, the TGI in the assay on 786-0 renal, in the assay with CCRF-CEM leukemia, in the assay with NCI-H460 lung, with OVCAR-5 ovarian, in the assay with RXF 393 renal and in the assay on SF-539 CNS was above 100 µM in each case. Also, the TGI with SR leukemia is above 100 µM.
`CN(O)C(=O)SCC(NC(=O)CCC(N)C(=O)O)C(=O)NCC(=O)O` (stereo not drawn): the GI50 is above 2000 µM in the assay with 786-0 renal; above 2000 µM with CAKI-1 renal; 198 µM and 520 µM in the assay on CCRF-CEM leukemia; above 2 µM with NCI-H460 lung; above 2000 µM with RXF 393 renal. Further, the TGI is above 2000 µM in the assay with 786-0 renal; above 2000 µM in the assay with CAKI-1 renal; > 2 µM and 649 µM and 1240 µM with CCRF-CEM leukemia; above 2000 µM with NCI-H460 lung; above 2 µM with OVCAR-5 ovarian; above 2000 µM with RXF 393 renal. The TGI in the assay on SF-539 CNS and in the assay on SR leukemia was above 2 µM each time.
With `O=C(O)CCCSC(=O)Nc1ccc(N=Nc2ccccc2)cc1`, the TGI with 786-0 renal, in the assay with CAKI-1 renal, in the assay on CCRF-CEM leukemia, in the assay on NCI-H460 lung, with OVCAR-5 ovarian and in the assay on RXF 393 renal was above 100 µM throughout. Further, the TGI with SF-539 CNS and in the assay on SR leukemia was above 100 µM each time.
